Assay results as given in US4190674A, “3-Fluoro-N-cyclopropylcinnamide” (Burroughs Wellcome Co., priority 1977, dated 1980).

What was measured:
Assay type in all cases: in vivo
rat = assay: Maximal Electroschock Test (MES), rat; settings: ip
Source text: (§1) 1. Maximal Electroschock Test (MES) in mice, a method described by Woodbury and Davenport, Arch int. Pharmacodyn. Ther. 92, P. 97-107 (1952).
(§2) In the MES pharmacological test referred to hereinbefore, the stated compounds had the given ED50 when administered i.p. to mice or rats as appropriate.

muscle tone = assay: Muscle tone in mammals (general statement); settings: in words
mice = assay: Maximal Electroschock Test (MES) in mice; settings: Mus musculus, ip
Source text: as §1, §2

[1] = test system: monosynaptic kneed-jerk reflex; assay: Muscle Relaxant Activity: monosynaptic knee-jerk reflex in the cat; settings: oral dose of from 100-150 mg/kg
Protocol: (§3) The effect of trans 3-fluoro-N-cyclopropylcinnamamide as a centrally acting muscle relaxant was determined using a method based on that described in Berger, F. M. & Bradley, W. (Br. J. Pharmac. Chemother, (1946), 1, 265-272) and Crankshaw, D. P. & Raper, C. (Br. J. Pharmac. (1970), 38, 148-156).

[2] = test system: polysynaptic reflex contractions; assay: Muscle Relaxant Activity: polysynaptic reflex contractions in the cat; settings: oral dose of from 100-150 mg/kg
Protocol: as §3

`O=C(/C=C/c1cccc(C(F)(F)F)c1)NC1CC1` [Trans 3-Trifluoromethyl-N-Cyclopropylcinnamamide] was tested, and the ED50 (rat) was 56 mg/kg.

In the case of `O=C(/C=C/c1cccc(F)c1)NC1CC1` [formula (IA), 3-fluoro-N-cyclopropylcinnamamide], the muscle tone (muscle tone) is reported as “decreases muscle tone in mammals”.

For `O=C(/C=C/c1cccc(Br)c1)NC1CC1` [trans 3-bromo-N-cyclopropylcinnamamide, Trans 3-Bromo-N-cyclopropylcinnamamide], the ED50 (mice) was 77 mg/kg.

With `O=C(/C=C/c1cccc(F)c1)NC1CC1` [trans 3-fluoro-N-cyclopropylcinnamamide, Trans 3-Fluoro-N-cyclopropylcinnamamide] the ED50 (mice) was 60 mg/kg, the monosynaptic kneed-jerk reflex [1] was “without affecting the monosynaptic kneed-jerk reflex” and the polysynaptic reflex contractions [2] was “suppressed polysynaptic reflex contractions”.
